The values below come from publication PMC3058872 (Archives of biochemistry and biophysics, 2010).

pKd: −log10 of the molar value.

Assay [1] has as its target T1, EI^Ntr (Enzyme I^Ntr) (Escherichia coli, UniProt P37177, H356A). Nature of the assay: intrinsic Trp fluorescence titration. In kind it is binding.
Assay [2] has as its target T1, EI^Ntr (Enzyme I^Ntr). Nature of the assay: thermal unfolding followed by Trp fluorescence. Particulars: hydrogenated protein, 150 μM PEP, 20 mM Tris-Cl pH 8, 2 mM MgCl2, scan 30 °C/h. The class given is binding.

T1 sequence (P37177 170-748 H356A limits assumed): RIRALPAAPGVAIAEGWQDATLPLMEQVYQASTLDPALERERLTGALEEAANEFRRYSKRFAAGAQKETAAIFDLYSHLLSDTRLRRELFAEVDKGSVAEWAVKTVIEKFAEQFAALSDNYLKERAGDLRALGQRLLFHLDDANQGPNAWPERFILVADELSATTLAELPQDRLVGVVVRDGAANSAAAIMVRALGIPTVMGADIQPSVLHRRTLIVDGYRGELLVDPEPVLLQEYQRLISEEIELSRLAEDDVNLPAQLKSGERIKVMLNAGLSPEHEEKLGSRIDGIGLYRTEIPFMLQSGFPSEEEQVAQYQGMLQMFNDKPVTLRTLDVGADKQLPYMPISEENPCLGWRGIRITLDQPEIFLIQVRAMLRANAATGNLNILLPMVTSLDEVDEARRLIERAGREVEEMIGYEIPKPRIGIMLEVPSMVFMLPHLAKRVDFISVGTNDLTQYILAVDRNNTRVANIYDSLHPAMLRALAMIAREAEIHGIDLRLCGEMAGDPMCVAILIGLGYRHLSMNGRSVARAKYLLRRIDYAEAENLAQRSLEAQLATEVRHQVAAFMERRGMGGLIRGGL

Consider `C=C(OP(=O)(O)O)C(=O)O` [PEP], for which, in assay [1], the pKd (in general, the negative decadic logarithm of the Kd, by convention in mol/L) was 4.68. Also, the “stabilization due to PEP binding (dTm)” value in assay [2] is 4.04 °C.
